Assay results as given in PubChem BioAssay AID248 (DTP/NCI, 2004).
“And” between values parts separate entries of the source, which are not always exact repeats. Identical values can stand only once. Toxic doses and inconclusive results are not listed.

Tested on: L1210 leukemia ip in BDF1 mice, survival T/C
Experiment: NCI In Vivo Anticancer Drug Screen. Data for tumor model L1210 Leukemia (intraperitoneal) in B6D2F1 (BDF1) mice
Settings: endpoint: mean survival time, higher = longer survival
Outline: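 Read-out is survival time, reported as the treated-group measurement over the vehicle-control measurement.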

Structure (SMILES): Nc1nc(=S)c2ncn(C3OC(CO)C(O)C3O)c2[nH]1 (centres undefined)
- T/C (dose: 0.09 mg/kg/injection, schedule: Q01DX Z (ip), vehicle: carboxymethylcellulose (CMC)): 109 % of control
- T/C (dose: 0.18 mg/kg/injection, schedule: Q01DX Z (ip), vehicle: carboxymethylcellulose (CMC)): 124 % of control
- T/C (dose: 0.25 mg/kg/injection, schedule: Q01DX015 (ip), vehicle: carboxymethylcellulose (CMC)): 111 % of control and 115 % of control
- T/C (dose: 0.25 mg/kg/injection, schedule: Q01DX015 (ip), vehicle: other): 110 % of control
- T/C (dose: 0.37 mg/kg/injection, schedule: Q01DX Z (ip), vehicle: carboxymethylcellulose (CMC)): 121 % of control
- T/C (dose: 0.4 mg/kg/injection, schedule: Q01DX009 (sc), vehicle: carboxymethylcellulose (CMC)): 98 % of control
- T/C (dose: 0.44 mg/kg/injection, schedule: Q01DX015 (ip), vehicle: carboxymethylcellulose (CMC)): 113 % of control
- T/C (dose: 0.5 mg/kg/injection, schedule: Q01DX015 (ip), vehicle: carboxymethylcellulose (CMC)): 123 % of control
- T/C (dose: 0.5 mg/kg/injection, schedule: Q01DX015 (ip), vehicle: other): 123 % of control
- T/C (dose: 0.5 mg/kg/injection, schedule: Q01DX Z (ip), vehicle: carboxymethylcellulose (CMC)): 151 % of control
- T/C (dose: 0.62 mg/kg/injection, schedule: Q01DX015 (oral), vehicle: carboxymethylcellulose (CMC)): 112 % of control
- T/C (dose: 0.67 mg/kg/injection, schedule: Q01DX015 (ip), vehicle: carboxymethylcellulose (CMC)): 113 % of control
- T/C (dose: 0.8 mg/kg/injection, schedule: Q01DX009 (oral), vehicle: carboxymethylcellulose (CMC)): 105 % of control
- T/C (dose: 0.8 mg/kg/injection, schedule: Q01DX009 (sc), vehicle: carboxymethylcellulose (CMC)): 102 % of control
- T/C (dose: 1.0 mg/kg/injection, schedule: Q01DX015 (ip), vehicle: other): 124 % of control
- T/C (dose: 1.0 mg/kg/injection, schedule: Q01DX Z (ip), vehicle: carboxymethylcellulose (CMC)): 157 % of control
- T/C (dose: 1.25 mg/kg/injection, schedule: Q01DX015 (oral), vehicle: carboxymethylcellulose (CMC)): 124 % of control
- T/C (dose: 1.56 mg/kg/injection, schedule: Q01DX009 (ip), vehicle: saline): 152 % of control and 158 % of control
- T/C (dose: 1.8 mg/kg/injection, schedule: Q## X032 (ip), vehicle: carboxymethylcellulose (CMC)): 120 % of control
- T/C (dose: 2.16 mg/kg/injection, schedule: Q01DX Z (ip), vehicle: carboxymethylcellulose (CMC)): 152 % of control
- T/C (dose: 2.16 mg/kg/injection, schedule: Q01DX Z (oral), vehicle: carboxymethylcellulose (CMC)): 114 % of control
- T/C (dose: 2.7 mg/kg/injection, schedule: Q02DX008 (ip), vehicle: carboxymethylcellulose (CMC)): 152 % of control
- T/C (dose: 3.0 mg/kg/injection, schedule: Q01DX009 (ip), vehicle: saline): 104 % of control
- T/C (dose: 3.0 mg/kg/injection, schedule: Q01DX Z (ip), vehicle: carboxymethylcellulose (CMC)): 152 % of control
- T/C (dose: 4.0 mg/kg/injection, schedule: Q01DX015 (ip), vehicle: carboxymethylcellulose (CMC)): 120 % of control
- T/C (dose: 4.0 mg/kg/injection, schedule: Q01DX Z (ip), vehicle: carboxymethylcellulose (CMC)): 108 % of control
- T/C (dose: 4.0 mg/kg/injection, schedule: Q02DX008 (ip), vehicle: carboxymethylcellulose (CMC)): 153 % of control
- T/C (dose: 4.2 mg/kg/injection, schedule: Q## X032 (ip), vehicle: carboxymethylcellulose (CMC)): 123 % of control
- T/C (dose: 4.6 mg/kg/injection, schedule: Q01DX009 (ip), vehicle: saline): 89 % of control
- T/C (dose: 5.5 mg/kg/injection, schedule: Q## X003 (ip), vehicle: carboxymethylcellulose (CMC)): 156 % of control
- T/C (dose: 5.8 mg/kg/injection, schedule: Q02DX008 (ip), vehicle: carboxymethylcellulose (CMC)): 156 % of control
- T/C (dose: 6.0 mg/kg/injection, schedule: Q01DX Z (ip), vehicle: carboxymethylcellulose (CMC)): 122 % of control
- T/C (dose: 6.0 mg/kg/injection, schedule: Q01DX Z (oral), vehicle: carboxymethylcellulose (CMC)): 150 % of control
- T/C (dose: 6.25 mg/kg/injection, schedule: Q01DX009 (ip), vehicle: saline): 118 % of control
- T/C (dose: 6.4 mg/kg/injection, schedule: Q## X032 (ip), vehicle: carboxymethylcellulose (CMC)): 154 % of control
- T/C (dose: 7.0 mg/kg/injection, schedule: Q01DX Z (ip), vehicle: carboxymethylcellulose (CMC)): 116 % of control
- T/C (dose: 8.0 mg/kg/injection, schedule: Q01DX Z (ip), vehicle: carboxymethylcellulose (CMC)): 110 % of control
- T/C (dose: 8.8 mg/kg/injection, schedule: Q02DX008 (ip), vehicle: carboxymethylcellulose (CMC)): 150 % of control
- T/C (dose: 9.0 mg/kg/injection, schedule: Q01DX Z (ip), vehicle: saline): 105 % of control and 108 % of control
- T/C (dose: 10.0 mg/kg/injection, schedule: Q01DX Z (oral), vehicle: carboxymethylcellulose (CMC)): 119 % of control
- T/C (dose: 10.0 mg/kg/injection, schedule: Q## X004 (ip), vehicle: carboxymethylcellulose (CMC)): 158 % of control
- T/C (dose: 12.5 mg/kg/injection, schedule: Q01DX009 (ip), vehicle: saline): 108 % of control and 123 % of control
- T/C (dose: 13.0 mg/kg/injection, schedule: Q01DX Z (ip), vehicle: saline): 108 % of control
- T/C (dose: 13.0 mg/kg/injection, schedule: Q02DX008 (ip), vehicle: carboxymethylcellulose (CMC)): 119 % of control
- T/C (dose: 14.0 mg/kg/injection, schedule: Q## X032 (ip), vehicle: carboxymethylcellulose (CMC)): 155 % of control
- T/C (dose: 16.0 mg/kg/injection, schedule: Q01DX009 (ip), vehicle: saline): 104 % of control
- T/C (dose: 16.8 mg/kg/injection, schedule: Q01DX Z (oral), vehicle: carboxymethylcellulose (CMC)): 108 % of control
- T/C (dose: 18.8 mg/kg/injection, schedule: Q01DX009 (ip), vehicle: saline): 119 % of control
- T/C (dose: 18.8 mg/kg/injection, schedule: Q01DX Z (ip), vehicle: saline): 103 % of control
- T/C (dose: 20.0 mg/kg/injection, schedule: Q01DX Z (ip), vehicle: saline): 109 % of control
- T/C (dose: 20.0 mg/kg/injection, schedule: Q01DX Z (oral), vehicle: carboxymethylcellulose (CMC)): 122 % of control
- T/C (dose: 22.0 mg/kg/injection, schedule: Q## X032 (ip), vehicle: carboxymethylcellulose (CMC)): 155 % of control
- T/C (dose: 22.5 mg/kg/injection, schedule: Q01DX001 (oral), vehicle: carboxymethylcellulose (CMC)): 154 % of control
- T/C (dose: 25.0 mg/kg/injection, schedule: Q01DX005 (ip), vehicle: saline): 94 % of control and 111 % of control and 117 % of control
- T/C (dose: 25.0 mg/kg/injection, schedule: Q01DX009 (ip), vehicle: saline): 100 % of control and 120 % of control and 94 % of control
- T/C (dose: 30.0 mg/kg/injection, schedule: Q01DX Z (ip), vehicle: saline): 93 % of control
- T/C (dose: 32.0 mg/kg/injection, schedule: Q## X032 (ip), vehicle: carboxymethylcellulose (CMC)): 119 % of control
- T/C (dose: 36.0 mg/kg/injection, schedule: Q## X016 (ip), vehicle: carboxymethylcellulose (CMC)): 122 % of control
- T/C (dose: 37.5 mg/kg/injection, schedule: Q01DX009 (ip), vehicle: saline): 108 % of control
- T/C (dose: 37.5 mg/kg/injection, schedule: Q01DX010 (ip), vehicle: saline): 97 % of control
- T/C (dose: 40.0 mg/kg/injection, schedule: Q01DX Z (oral), vehicle: carboxymethylcellulose (CMC)): 101 % of control
- T/C (dose: 45.0 mg/kg/injection, schedule: Q01DX001 (ip), vehicle: carboxymethylcellulose (CMC)): 155 % of control
- T/C (dose: 45.0 mg/kg/injection, schedule: Q02DX008 (ip), vehicle: carboxymethylcellulose (CMC)): 157 % of control
- T/C (dose: 50.0 mg/kg/injection, schedule: Q01DX001 (ip), vehicle: saline): 96 % of control
- T/C (dose: 50.0 mg/kg/injection, schedule: Q01DX005 (ip), vehicle: saline): 111 % of control
- T/C (dose: 67.0 mg/kg/injection, schedule: Q## X004 (ip), vehicle: carboxymethylcellulose (CMC)): 151 % of control
- T/C (dose: 75.0 mg/kg/injection, schedule: Q01DX009 (ip), vehicle: saline): 96 % of control
- T/C (dose: 90.0 mg/kg/injection, schedule: Q01DX001 (sc), vehicle: carboxymethylcellulose (CMC)): 156 % of control
- T/C (dose: 100.0 mg/kg/injection, schedule: Q01DX001 (ip), vehicle: carboxymethylcellulose (CMC)): 155 % of control
- T/C (dose: 100.0 mg/kg/injection, schedule: Q01DX001 (ip), vehicle: saline): 102 % of control
- T/C (dose: 100.0 mg/kg/injection, schedule: Q01DX009 (ip), vehicle: saline): 104 % of control
- T/C (dose: 144.0 mg/kg/injection, schedule: Q01DX001 (ip), vehicle: carboxymethylcellulose (CMC)): 158 % of control
- T/C (dose: 150.0 mg/kg/injection, schedule: Q01DX001 (ip), vehicle: carboxymethylcellulose (CMC)): 157 % of control
- T/C (dose: 180.0 mg/kg/injection, schedule: Q01DX001 (ip), vehicle: carboxymethylcellulose (CMC)): 154 % of control
- T/C (dose: 180.0 mg/kg/injection, schedule: Q## X002 (ip), vehicle: carboxymethylcellulose (CMC)): 109 % of control
- T/C (dose: 200.0 mg/kg/injection, schedule: Q01DX001 (ip), vehicle: saline): 98 % of control
- T/C (dose: 200.0 mg/kg/injection, schedule: Q01DX005 (ip), vehicle: saline): 120 % of control and 106 % of control
- T/C (dose: 200.0 mg/kg/injection, schedule: Q01DX009 (ip), vehicle: saline): 105 % of control
- T/C (dose: 225.0 mg/kg/injection, schedule: Q01DX001 (ip), vehicle: carboxymethylcellulose (CMC)): 150 % of control
- T/C (dose: 225.0 mg/kg/injection, schedule: Q## X004 (ip), vehicle: carboxymethylcellulose (CMC)): 119 % of control
- T/C (dose: 270.0 mg/kg/injection, schedule: Q01DX001 (ip), vehicle: carboxymethylcellulose (CMC)): 124 % of control
- T/C (dose: 360.0 mg/kg/injection, schedule: Q01DX001 (sc), vehicle: carboxymethylcellulose (CMC)): 95 % of control
- T/C (dose: 360.0 mg/kg/injection, schedule: Q## X003 (oral), vehicle: carboxymethylcellulose (CMC)): 110 % of control
- T/C (dose: 400.0 mg/kg/injection, schedule: Q01DX001 (ip), vehicle: carboxymethylcellulose (CMC)): 103 % of control
- T/C (dose: 400.0 mg/kg/injection, schedule: Q01DX009 (ip), vehicle: saline): 94 % of control
- T/C (dose: 720.0 mg/kg/injection, schedule: Q01DX001 (oral), vehicle: carboxymethylcellulose (CMC)): 109 % of control
- T/C (dose: 84.0 micrograms/kg/injection, schedule: Q01DX Z (ip), vehicle: saline): 121 % of control
- T/C (dose: 120.0 micrograms/kg/injection, schedule: Q01DX Z (ip), vehicle: saline): 115 % of control
- T/C (dose: 290.0 micrograms/kg/injection, schedule: Q01DX Z (ip), vehicle: saline): 151 % of control
